Molecules are shown by their SMILES.

In this test the target is T1, human PDE5 (Homo sapiens, UniProt O76074).
T1 construct: from tissue; host or cells: platelets from fresh blood of human donors (lysate, 10,000 g supernatant)
The experiment in a line: Inhibition of the type 5 phosphodiesterase (PDE5) activity, modified SPA test with platelet lysate. The format is biochemical. Conditions: PDE5 from human platelet lysate, 0.5 μM cGMP. Put shortly:
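Human platelet lysate (10,000 g supernatant) as PDE5 source in SPA with 0.5 μM cGMP plus [3H]cGMP tracer, pH 7.4, 5 mM Mg2+, 1 μM motapizone and 10 nM PDE2 inhibitor; 10–20% conversion. 5 min preincubation, 15 min at 37 °C, stopped with SPA beads/IBMX. IC50 by non-linear regression.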
As for `Cc1ccc(OCC2CC2)c(-c2ncnc3c(C(=O)N[C@H]4CC[C@H](NC(=O)C5(O)CC5)CC4)c[nH]c23)c1` [Example 245, trans-4-(2-Cyclopropylmethoxy-5-methyl-phenyl)-5H-pyrrolo[3,2-d]pyrimidine-7-carboxylic acid {4-[(1-hydroxy-cyclopropanecarbonyl)-amino]-cyclohexyl}-amide], 1.15 nM corresponded to half-maximal inhibition (IC50). For the molecule `Cc1ccc(OCC2CC2)c(-c2ncnc3c(C(=O)NC4CCN(C(=O)CO)CC4)c[nH]c23)c1` [Example 246, 4-(2-Cyclopropylmethoxy-5-methyl-phenyl)-5H-pyrrolo[3,2-d]pyrimidine-7-carboxylic acid [1-(2-hydroxy-acetyl)piperidin-4-yl]-amide], the IC50 (commonly the concentration that gives 50% inhibition) is 3.63 nM.

For the molecule `Cc1ccc(OCC2CC2)c(-c2ncnc3c(C(=O)NC4CCN(C(=O)[C@H](C)O)CC4)c[nH]c23)c1` [Example 247, 4-(2-Cyclopropylmethoxy-5-methyl-phenyl)-5H-pyrrolo[3,2-d]pyrimidine-7-carboxylic acid [1-((S)-2-hydroxy-propionyl)piperidin-4-yl]-amide], the IC50 was 2.34 nM. `Cc1ccc(OCC2CC2)c(-c2ncnc3c(C(=O)NC4CCN(C(=O)C5(O)CC5)CC4)c[nH]c23)c1` [Example 248, 4-(2-Cyclopropylmethoxy-5-methyl-phenyl)-5H-pyrrolo[3,2-d]pyrimidine-7-carboxylic acid [1-(1-hydroxy-cyclopropanecarbonyl)-piperidin-4-yl]-amide]: the IC50 was 1.1 nM.

For the molecule `CCOc1ccc2c(c1-c1ncnc3c(C(=O)NC4CCN(C(=O)[C@H](C)O)CC4)c[nH]c13)OCO2` [Example 249, 4-(5-Ethoxy-benzo[1,3]dioxol-4-yl)-5H-pyrrolo[3,2-d]pyrimidine-7-carboxylic acid [1-((S)-2-hydroxy-propionyl)-piperidin-4-yl]-amide], the IC50 is 2.14 nM.

`CCOc1ccc2c(c1-c1ncnc3c(C(=O)N[C@@H]4CCN(C(=O)[C@H](C)O)C4)c[nH]c13)OCO2` [Example 250, 4-(5-Ethoxy-benzo[1,3]dioxol-4-yl)-5H-pyrrolo[3,2-d]pyrimidine-7-carboxylic acid [(R)-1-((S)-2-hydroxy-propionyl)-pyrrolidin-3-yl]amide] showed an IC50 of 4.79 nM. Then `CCCOc1ccc2c(c1-c1ncnc3c(C(=O)NC4CCN(C(=O)[C@H](C)O)CC4)c[nH]c13)OCO2` [Example 251, 4-(5-Propoxy-benzo[1,3]dioxol-4-yl)-5H-pyrrolo[3,2-d]pyrimidine-7-carboxylic acid [1-((S)-2-hydroxy-propionyl)piperidin-4-yl]-amide], with 0.363 nM. Then `CCCOc1ccc2c(c1-c1ncnc3c(C(=O)N[C@@H]4CCN(C(=O)[C@H](C)O)C4)c[nH]c13)OCO2` [Example 252, 4-(5-Propoxy-benzo[1,3]dioxol-4-yl)-5H-pyrrolo[3,2-d]pyrimidine-7-carboxylic acid [(R)-1-((S)-2-hydroxy-propionyl)-pyrrolidin-3-yl]amide], with 1.2 nM; and `CCCCOc1ccc2c(c1-c1ncnc3c(C(=O)NC4CCN(C(=O)[C@H](C)O)CC4)c[nH]c13)OCO2` [Example 253, 4-(5-Butoxy-benzo[1,3]dioxol-4-yl)-5H-pyrrolo[3,2-d]pyrimidine-7-carboxylic acid [1-((S)-2-hydroxy-propionyl)-piperidin-4-yl]-amide], with 0.17 nM; and `CCCCOc1ccc2c(c1-c1ncnc3c(C(=O)N[C@@H]4CCN(C(=O)[C@H](C)O)C4)c[nH]c13)OCO2` [Example 254, 4-(5-Butoxy-benzo[1,3]dioxol-4-yl)-5H-pyrrolo[3,2-d]pyrimidine-7-carboxylic acid [(R)-1-((S)-2-hydroxy-propionyl)-pyrrolidin-3-yl]amide], with 0.589 nM. `COCCOc1cc(OC)ccc1-c1ncnc2c(C(=O)N[C@H]3CC[C@H](NC(=O)CO)CC3)c[nH]c12` [Example 255, trans-4-[4-Methoxy-2-(2-methoxy-ethoxy)-phenyl]-5H-pyrrolo[3,2-d]pyrimidine-7-carboxylic acid [4-(2-hydroxy-acetylamino)-cyclohexyl]-amide] gave an IC50 of 13.5 nM.

On to `COCCOc1cc(OC)ccc1-c1ncnc2c(C(=O)N[C@H]3CC[C@H](NC(=O)[C@H](C)O)CC3)c[nH]c12` [Example 256, trans-4-[4-Methoxy-2-(2-methoxy-ethoxy)-phenyl]-5H-pyrrolo[3,2-d]pyrimidine-7-carboxylic acid [4-((S)-2-hydroxy-propionylamino)-cyclohexyl]-amide], for which half-maximal inhibition (IC50) required 12 nM.

On to `COCCOc1cc(OC)ccc1-c1ncnc2c(C(=O)N[C@H]3CC[C@H](NC(=O)C4(O)CC4)CC3)c[nH]c12` [Example 257, trans-4-[4-Methoxy-2-(2-methoxy-ethoxy)-phenyl]-5H-pyrrolo[3,2-d]pyrimidine-7-carboxylic acid {-[(1-hydroxy-cyclopropanecarbonyl)-amino]-cyclohexyl}-amide], for which the IC50 was 9.33 nM. Then `COCCOc1cc(OC)ccc1-c1ncnc2c(C(=O)N[C@H]3CC[C@@H](NC(=O)C4(O)CC4)CC3)c[nH]c12` [Example 258, cis-4-[4-Methoxy-2-(2-methoxy-ethoxy)-phenyl]-5H-pyrrolo[3,2-d]pyrimidine-7-carboxylic acid {-[(1-hydroxy-cyclopropanecarbonyl)-amino]-cyclohexyl}-amide], with 6.31 nM; and `COCCOc1cc(OC)ccc1-c1ncnc2c(C(=O)NC3CCN(C(=O)C4(O)CC4)CC3)c[nH]c12` [Example 259, 4-[4-Methoxy-2-(2-methoxy-ethoxy)-phenyl]-5H-pyrrolo[3,2-d]pyrimidine-7-carboxylic acid [1-(1-hydroxy-cyclopropanecarbonyl)-piperidin-4-yl]-amide], with 8.51 nM.

For `COCCOc1ccc2c(c1-c1ncnc3c(C(=O)N[C@H]4CC[C@H](NC(=O)CO)CC4)c[nH]c13)OCO2` [Example 260, trans-4-[5-(2-Methoxy-ethoxy)-benzo[1,3]dioxol-4-yl]-5H-pyrrolo[3,2-d]pyrimidine-7-carboxylic acid [4-(2-hydroxy-acetylamino)-cyclohexyl]-amide], the concentration for half-maximal inhibition (IC50) is 4.79 nM. `COCCOc1ccc2c(c1-c1ncnc3c(C(=O)N[C@H]4CC[C@@H](NC(=O)CO)CC4)c[nH]c13)OCO2` [Example 261, cis-4-[5-(2-Methoxy-ethoxy)-benzo[1,3]dioxol-4-yl]-5H-pyrrolo[3,2-d]pyrimidine-7-carboxylic acid [4-(2-hydroxy-acetylamino)-cyclohexyl]-amide] showed an IC50 of 11 nM. The figure for `COCCOc1ccc2c(c1-c1ncnc3c(C(=O)N[C@H]4CC[C@@H](NC(=O)[C@H](C)O)CC4)c[nH]c13)OCO2` [Example 262, cis-4-[5-(2-Methoxy-ethoxy)-benzo[1,3]dioxol-4-yl]-5H-pyrrolo[3,2-d]pyrimidine-7-carboxylic acid [4-((S)-2-hydroxy-propionylamino)-cyclohexyl]-amide] is 9.33 nM; for `COCCOc1ccc2c(c1-c1ncnc3c(C(=O)NC4CCN(C(=O)[C@H](C)O)CC4)c[nH]c13)OCO2` [Example 263, 4-[5-(2-Methoxy-ethoxy)-benzo[1,3]dioxol-4-yl]-5H-pyrrolo[3,2-d]pyrimidine-7-carboxylic acid [1-((S)-2-hydroxy-propionyl)piperidin-4-yl]-amide] it is 10 nM.

`CC(=O)c1ccc(OCC2CC2)c(-c2ncnc3c(C(=O)NC4CCN(C(=O)[C@H](C)O)CC4)c[nH]c23)c1` [Example 264, 4-(5-Acetyl-2-cyclopropylmethoxy-phenyl)-5H-pyrrolo[3,2-d]pyrimidine-7-carboxylic acid [1-((S)-2-hydroxy-propanoyl)piperidin-4-yl]-amide] had an IC50 of 0.219 nM. The figure for `COCC(=O)N1CCC(NC(=O)c2c[nH]c3c(-c4cc(C(C)=O)ccc4OCC4CC4)ncnc23)CC1` [Example 265, 4-(5-Acetyl-2-cyclopropylmethoxy-phenyl)-5H-pyrrolo[3,2-d]pyrimidine-7-carboxylic acid [1-(2-methoxy-acetyl)piperidin-4-yl]-amide] is 0.288 nM; for `CC(=O)c1ccc(OCC2CC2)c(-c2ncnc3c(C(=O)NC4CCN(C(C)=O)CC4)c[nH]c23)c1` [Example 266, 4-(5-Acetyl-2-cyclopropylmethoxy-phenyl)-5H-pyrrolo[3,2-d]pyrimidine-7-carboxylic acid (1-acetyl-piperidin-4-yl)-amide] it is 0.0794 nM. Then `CC(=O)c1cc(-c2ncnc3c(C(=O)NC4CCN(C(=O)[C@H](C)O)CC4)c[nH]c23)c(OCC2CC2)cc1C` [Example 267, 4-(5-Acetyl-2-cyclopropylmethoxy-4-methyl-phenyl)-5H-pyrrolo[3,2-d]pyrimidine-7-carboxylic acid [1-((S)-2-hydroxy-propionyl)piperidin-4-yl]-amide], with 0.324 nM.

The molecule `CC(=O)c1cc(-c2ncnc3c(C(=O)NC4CCN(C(C)=O)CC4)c[nH]c23)c(OCC2CC2)cc1C` [Example 268, 4-(5-Acetyl-2-cyclopropylmethoxy-4-methyl-phenyl)-5H-pyrrolo[3,2-d]pyrimidine-7-carboxylic acid (1-acetyl-piperidin-4-yl)-amide] had an IC50 of 0.794 nM. Then `COCCNC(=O)[C@H]1CC[C@H](NC(=O)c2c[nH]c3c(-c4c(OCC5CC5)ccc5c4OCO5)ncnc23)CC1` [Example 269, trans-4-(5-Cyclopropylmethoxy-benzo[1,3]dioxol-4-yl)-5H-pyrrolo[3,2-d]pyrimidine-7-carboxylic acid [4-(2-methoxy-ethylcarbamoyl)-cyclohexyl]-amide], with 0.575 nM; and `O=C(N[C@H]1CC[C@H](C(=O)NC2CC2)CC1)c1c[nH]c2c(-c3c(OCC4CC4)ccc4c3OCO4)ncnc12` [Example 270, trans-4-(5-Cyclopropylmethoxy-benzo[1,3]dioxol-4-yl)-5H-pyrrolo[3,2-d]pyrimidine-7-carboxylic acid (4-cyclopropylcarbamoyl-cyclohexyl)-amide], with 0.191 nM.

Values taken from patent US8445501B2, “Substituted 7-carboxamido-pyrrolo[3,2-d]pyrimidines” (Takeda GmbH, priority 2008, dated 2013).
